Test results from the OligoGym collection.
After the bases stand the sugars from the 5' end (letter, count) and the backbone: PS all phosphorothioate, else s phosphorothioate and o phosphodiester by linkage. Methylation of C is not given here. e = 2'-O-(2-methoxyethyl) (MOE); k = constrained ethyl (cEt); d = 2'-deoxy (DNA); m = 2'-O-methyl

Biological target: HSD17B13
Conditions: ASO, HepaRG

| Sequence | target mRNA inhibition (1 µM) [%] | further results |
| --- | --- | --- |
| ACTGATACATACCACT (sugars k3 d10 k3, PS) | 52 | – |
| ACTGCTGCTAGTGCCA (sugars k3 d1 m1 d8 k3, PS) | 64 | – |
| ACTGCTGCTAGTGCCA (sugars k3 d10 k3, PS) | 47 | – |
| ACTGGATGGATTTCTC (sugars k3 d10 k3, PS) | 83 | target mRNA inhibition (0.02 µM): 9%; target mRNA inhibition (0.078 µM): 20%; target mRNA inhibition (0.313 µM): 45%; target mRNA inhibition (1.25 µM): 60%; target mRNA inhibition (5 µM): 88% |
| ACTTACCAATATGGGA (sugars k3 d10 k3, PS) | 0 | – |
| ACTTCACCAACGACTC (sugars k3 d10 k3, PS) | 15 | – |
| ACTTGAACAGTCTTAA (sugars k3 d10 k3, PS) | 63 | – |
| ACTTGATCTCTTAGCT (sugars k3 d1 m1 d8 k3, PS) | 39 | – |
| ACTTGATCTCTTAGCT (sugars kkdddddddddkekek, PS) | 62 | – |
| AGAAAGTTCATTCGAA (sugars k3 d10 k3, PS) | 61 | – |
| AGAAATTCACCTTGAC (sugars k3 d1 m1 d8 k3, PS) | 9 | – |
| AGAAATTCACCTTGAC (sugars k3 d9 k3 e1, PS) | 7 | – |
| AGAAATTCACCTTGAC (sugars k3 d10 k3, PS) | 39 | – |
| AGAAATTCACCTTGAC (sugars kkdddddddddkekek, PS) | 33 | – |
| AGAAGATATTATCAGC (sugars k3 d10 k3, PS) | 64 | – |
| AGAATACGCTGAGAGT (sugars k3 d10 k3, PS) | 56 | – |
| AGAATAGGAGAGTCTT (sugars k3 d10 k3, PS) | 64 | – |
| AGACAAGAGTTCTTGC (sugars k3 d10 k3, PS) | 30 | – |
| AGACAATACAGGATAG (sugars k3 d10 k3, PS) | 15 | – |
| AGACAGACCAAGTAGC (sugars k3 d10 k3, PS) | 21 | – |
| AGACAGGTAATTAATC (sugars k3 d10 k3, PS) | 29 | – |
| AGACTTCTTACGACTT (sugars k3 d10 k3, PS) | 41 | – |
| AGAGCGATAGATCTCT (sugars k3 d10 k3, PS) | 8 | – |
| AGAGGATAGTCCATGC (sugars k3 d1 m1 d8 k3, PS) | 53 | – |

| Sequence | target mRNA inhibition (1 µM) [%] | further results |
| --- | --- | --- |
| AGAGGATAGTCCATGC (sugars k3 d9 k3 e1, PS) | 78 | target mRNA inhibition (0.02 µM): 0%; target mRNA inhibition (0.078 µM): 3%; target mRNA inhibition (0.313 µM): 40%; target mRNA inhibition (1.25 µM): 50%; target mRNA inhibition (5 µM): 44% |
| AGAGGATAGTGAACAT (sugars k3 d10 k3, PS) | 59 | – |
| AGAGGCTAGGGAAATC (sugars k3 d1 m1 d8 k3, PS) | 48 | – |
| AGAGTCGGTCACCTTT (sugars kkdddddddddkekek, PS) | 61 | – |
| AGAGTTGCACCGTTTT (sugars k3 d10 k3, PS) | 76 | target mRNA inhibition (0.02 µM): 5%; target mRNA inhibition (0.078 µM): 11%; target mRNA inhibition (0.313 µM): 40%; target mRNA inhibition (1.25 µM): 81%; target mRNA inhibition (5 µM): 87% |
| AGATAAAGCTGCCTGC (sugars k3 d10 k3, PS) | 48 | – |
| AGCAGAATTGTGAACG (sugars kkdddddddddkekek, PS) | 31 | – |
| AGCATTCATCAGATGT (sugars k3 d10 k3, PS) | 83 | target mRNA inhibition (0.02 µM): 0%; target mRNA inhibition (0.078 µM): 12%; target mRNA inhibition (0.313 µM): 40%; target mRNA inhibition (1.25 µM): 65%; target mRNA inhibition (5 µM): 56% |
| AGCATTCCATGATTAA (sugars k3 d10 k3, PS) | 47 | – |
| AGCATTGATTCGAAAC (sugars k3 d10 k3, PS) | 70 | – |
| AGCCAGTACAGTTCCT (sugars k3 d9 k3 e1, PS) | 59 | – |
| AGCTAACTCAGGCTGT (sugars k3 d10 k3, PS) | 14 | – |
| AGCTCCAGTAATGAGA (sugars k3 d10 k3, PS) | 26 | – |
| AGCTTATCGAGTTTAG (sugars k3 d10 k3, PS) | 54 | – |
| AGCTTTGCAGCATTGA (sugars k3 d10 k3, PS) | 62 | – |
| AGCTTTTGTCCACCTT (sugars kkdddddddddkekek, PS) | 62 | – |
| AGCTUTTGTCCACCTT (sugars k3 d1 m1 d8 k3, PS) | 72 | – |
| AGGAAATATAGAGGGT (sugars k3 d10 k3, PS) | 54 | – |
| AGGATACCTGAAAAGC (sugars k3 d10 k3, PS) | 81 | target mRNA inhibition (0.02 µM): 13%; target mRNA inhibition (0.078 µM): 23%; target mRNA inhibition (0.313 µM): 54%; target mRNA inhibition (1.25 µM): 70%; target mRNA inhibition (5 µM): 88% |
| AGGATAGTCCATGCAA (sugars k3 d9 k3 e1, PS) | 61 | – |
| AGGATAGTCCATGCAA (sugars k3 d10 k3, PS) | 64 | – |
| AGGATTAATCATGGGA (sugars k3 d10 k3, PS) | 37 | – |
| AGGATTAATTCCCTTC (sugars k3 d10 k3, PS) | 19 | – |
| AGGCAAAGATCTGGCC (sugars k3 d10 k3, PS) | 7 | – |

| Sequence | target mRNA inhibition (1 µM) [%] | further results |
| --- | --- | --- |
| AGGCATTAGATGGTAA (sugars k3 d10 k3, PS) | 51 | – |
| AGGCTAGGGAAATCTT (sugars kkdddddddddkekek, PS) | 45 | – |
| AGGCTGTAAGAGTCAG (sugars kkdddddddddkekek, PS) | 38 | – |
| AGGTAAACTAAAGTAC (sugars k3 d10 k3, PS) | 6 | – |
| AGGTATGTCATACTTC (sugars k3 d10 k3, PS) | 5 | – |
| AGGTUGAGATAAAGCT (sugars k3 d1 m1 d8 k3, PS) | 58 | – |
| AGTAAATTGAATAGCC (sugars k3 d10 k3, PS) | 39 | – |
| AGTAATGAGAACAATC (sugars k3 d10 k3, PS) | 45 | – |
| AGTAATTGCATCTGCT (sugars k3 d10 k3, PS) | 42 | – |
| AGTACAGTTCCTTTTC (sugars k3 d9 k3 e1, PS) | 59 | – |
| AGTACAGTTCCTTTTC (sugars k3 d10 k3, PS) | 69 | – |
| AGTAGAGAGCATAAGT (sugars k3 d10 k3, PS) | 52 | – |
| AGTAGGAGTAGATGAT (sugars k3 d10 k3, PS) | 0 | – |
| AGTAGTAATTCTAAAC (sugars k3 d10 k3, PS) | 23 | – |
| AGTATGTGAACTCCGT (sugars k3 d10 k3, PS) | 81 | target mRNA inhibition (0.02 µM): 0%; target mRNA inhibition (0.078 µM): 5%; target mRNA inhibition (0.313 µM): 30%; target mRNA inhibition (1.25 µM): 67%; target mRNA inhibition (5 µM): 86% |
| AGTCCATGCAAAAGCA (sugars k3 d9 k3 e1, PS) | 80 | target mRNA inhibition (0.02 µM): 1%; target mRNA inhibition (0.078 µM): 15%; target mRNA inhibition (0.313 µM): 43%; target mRNA inhibition (1.25 µM): 74%; target mRNA inhibition (5 µM): 85% |
| AGTCCATGCAAAAGCA (sugars k3 d10 k3, PS) | 77 | target mRNA inhibition (0.02 µM): 1%; target mRNA inhibition (0.078 µM): 14%; target mRNA inhibition (0.313 µM): 38%; target mRNA inhibition (1.25 µM): 55%; target mRNA inhibition (5 µM): 78% |
| AGTCCATGCAAAAGCA (sugars kkdddddddddkekek, PS) | 52 | – |
| AGTGAACATACATTGT (sugars k3 d10 k3, PS) | 48 | – |
| AGTGCATCTTAAGATA (sugars k3 d9 k3 e1, PS) | 12 | – |
| AGTGCCAAACCAATGT (sugars k3 d1 m1 d8 k3, PS) | 24 | – |
| AGTGCCAAACCAATGT (sugars k3 d10 k3, PS) | 62 | – |
| AGTTAGTATAGTTATC (sugars kkdddddddddkekek, PS) | 47 | – |
| AGTTATTAGAAGTCAG (sugars k3 d10 k3, PS) | 54 | – |

| Sequence | target mRNA inhibition (1 µM) [%] | further results |
| --- | --- | --- |
| AGTTATTAGAAGTCAG (sugars kkdddddddddkekek, PS) | 42 | – |
| AGTTTAGAAGTCAAAC (sugars k3 d10 k3, PS) | 23 | – |
| AGTTTATATGGATTTG (sugars k3 d10 k3, PS) | 67 | – |
| ATAACCTAATAACTAC (sugars k3 d10 k3, PS) | 26 | – |
| ATAACTGAGCTAGACA (sugars k3 d10 k3, PS) | 71 | – |
| ATAATAATAGCTCTAT (sugars k3 d10 k3, PS) | 1 | – |
| ATAATGGGCAGAGCTG (sugars k3 d10 k3, PS) | 53 | – |
| ATACAGGCCATAATCT (sugars k3 d10 k3, PS) | 0 | – |
| ATACGACTTCCTTCTA (sugars k3 d10 k3, PS) | 44 | – |
| ATACTAATGTCCAAGG (sugars k3 d10 k3, PS) | 89 | target mRNA inhibition (0.02 µM): 12%; target mRNA inhibition (0.078 µM): 43%; target mRNA inhibition (0.313 µM): 94%; target mRNA inhibition (1.25 µM): 84% |
| ATACTTTTCCGTCTCA (sugars k3 d10 k3, PS) | 90 | target mRNA inhibition (0.02 µM): 10%; target mRNA inhibition (0.078 µM): 41%; target mRNA inhibition (0.313 µM): 71%; target mRNA inhibition (1.25 µM): 90% |
| ATAGAGGGTCCACTTT (sugars k3 d10 k3, PS) | 21 | – |
| ATAGAGTCGGTCACCT (sugars k3 d10 k3, PS) | 60 | – |
| ATAGCAAGCCAACAGA (sugars k3 d1 m1 d8 k3, PS) | 1 | – |
| ATAGCAAGCCAACAGA (sugars k3 d9 k3 e1, PS) | 30 | – |
| ATAGTCCATGCAAAAG (sugars k3 d9 k3 e1, PS) | 29 | – |
| ATAGTTCAAATTGGAT (sugars k3 d10 k3, PS) | 48 | – |
| ATAGUCCATGCAAAAG (sugars k3 d1 m1 d8 k3, PS) | 57 | – |
| ATATACGATGGAACAA (sugars k3 d10 k3, PS) | 0 | – |
| ATATAGAGGGTCCACT (sugars k3 d10 k3, PS) | 18 | – |
| ATATATCCTTCCTTGG (sugars k3 d10 k3, PS) | 20 | – |
